We go through 26 molecules from US20220409643A1, “ROR Gamma T Inhibitors and Topical Uses Thereof” (Dermira, inc., priority 2019, published 2022).

Structures are written as SMILES.

For the first assay, the system named is IL17A. In words: skin Resident Immune Cell Assay (sRICA), Th17 model, IL17A protein in media. The conditions noted are these: 100 uM solution in 1% DMSO/OD applied topically to human skin; media collected 24 hours after Th17 activation. The assay is classed as cell-based. As for the experimental part: A skin Resident Immune Cell Assay (sRICA) was used to test compounds for reduction of IL-17A protein upregulation in the Th17 sRICA model. In this model, human surgical skin waste was cultured in a transwell system, with the dermis in contact with cell culture media and the stratum corneum exposed to air. To perform the assay, each human skin sample was defatted and dermatomed to 750μm. Next, 8 mm punch biopsies were obtained and placed in a membrane transwell. The transwells were inserted into culture wells with complete media, and a cocktail of cytokines and antibodies were added to promote skin resident immune cell polarization.
RORγt inhibitors were prepared as a 100 uM solution in 1% DMSO/OD. […] of the prepared topical solution was applied to sRICA wells prepared for topical drug evaluation. Drugs were allowed to penetrate the skin overnight, for up to 24 hours prior to Th17 activation. Media was collected 24 hours after Th17 activation for IL17A protein assessment. IL17A protein was evaluated using the Quanterix IL17A detection kit on the SiMoA platform (via CRO Translational Biosciences). There was significant upregulation of IL17A with Th17 activation. Each study was normalized to the % max of IL17A production (i.e. the average IL17A concentration of Th17 activated skin alone) was set to 100%, all other values (untreated no activation and treated samples) were obtained as a percentage of this. […]
As a reminder, the inhibition is the relative decrease from the control value, in per cent. Consider `COCc1ccc([C@@H](NC(=O)Cc2cc(O)no2)C(=O)Nc2cc(F)c(C(C)(C)C)c(F)c2)cc1` [(2R)-N-(4-tert-butyl-3,5-difluorophenyl)-2-(((3-hydroxy-1,2-oxazol-5-yl)acetyl)amino)-2-(4-(methoxymethyl)phenyl)acetamide], for which the inhibition at 100 µM was determined as 26.3%.
Same read-out and setting: to `COCc1ccc([C@@H](NC(=O)Cc2nnc(C)o2)C(=O)Nc2ccc(C(C)(C)C)c(F)c2)cc1` [(2R)-N-(4-tert-butyl-3-fluorophenyl)-2-(4-(methoxymethyl)phenyl)-2-(((5-methyl-1,3,4-oxadiazol-2-yl)acetyl)amino)acetamide] belongs 62%.
Same read-out and setting: to `COCc1ccc([C@@H](NC(=O)Cc2cc(O)no2)C(=O)Nc2ccc(C(C)(C)C)c(F)c2)cc1` [(2R)-N-(4-tert-butyl-3-fluorophenyl)-2-(((3-hydroxy-1,2-oxazol-5-yl)acetyl)amino)-2-(4-(methoxymethyl)phenyl)acetamide] belongs 68.1%; to `CC(C)n1c(=O)n(CC2CC2)c(=O)c2cc(NC(=O)N3CCC[C@@H](NC(=O)c4ccccc4)C3)ccc21` [(3R)-3-(benzoylamino)-N-(3-(cyclopropylmethyl)-1-isopropyl-2,4-dioxo-1,2,3,4-tetrahydroquinazolin-6-yl)piperidine-1-carboxamide], 53.2%; to `CC(C)n1c(=O)n(CC2CC(F)(F)C2)c(=O)c2cc(NC(=O)N3CCC[C@@H](N4Cc5ccccc5C4=O)C3)c(F)cc21` [(3R)-N-(3-((3,3-difluorocyclobutyl)-methyl)-7-fluoro-1-isopropyl-2,4-dioxo-1,2,3,4-tetrahydro-quinazolin-6-yl)-3-(1-oxo-1,3-dihydro-2H-isoindol-2-yl)-piperidine-1-carboxamide], 73.1%.
Same read-out and setting: to `CC(C)n1c(=O)n(CC2CC2)c(=O)c2cc(NC(=O)N3CCC[C@@H](NC(=O)c4cc(F)ccc4F)C3)c(F)cc21` [(3R)-N-(3-(cyclopropylmethyl)-7-fluoro-1-isopropyl-2,4-dioxo-1,2,3,4-tetrahydroquinazolin-6-yl)-3-((2,5-difluorobenzoyl)amino)-piperidine-1-carboxamide] belongs 44.2%; to `COCc1ccc([C@@H](NC(=O)[C@H]2CNC(=O)C2)C(=O)Nc2cc(F)c(C(C)(C)C)c(F)c2)cc1` [(3R)-N-((1R)-2-((4-tert-butyl-3,5-difluorophenyl)amino)-1-(4-(methoxymethyl)phenyl)-2-oxoethyl)-5-oxopyrrolidine-3-carboxamide], 63.1%; to `COCc1ccc([C@@H](NC(=O)[C@H]2CNC(=O)C2)C(=O)Nc2ccc(C(C)(C)C)c(F)c2)cc1` [(3R)-N-((1R)-2-((4-tert-butyl-3-fluorophenyl)amino)-1-(4-(methoxymethyl)phenyl)-2-oxoethyl)-5-oxopyrrolidine-3-carboxamide], 74.1%.
On to `CC(C)(C)c1ccc(NC(=O)[C@H](NC(=O)[C@@H]2CNC(=O)C2)c2ccc3c(c2)CCO3)cc1F` [(3S)-N-(2-((4-tert-butyl-3-fluorophenyl)amino)-1-(2,3-dihydro-1-benzofuran-5-yl)-2-oxoethyl)-5-oxopyrrolidine-3-carboxamide], for which the inhibition at 100 µM was determined as 48.7%.
The same measure, in the same setting: to `COCc1ccc([C@@H](NC(=O)[C@@H]2CNC(=O)C2)C(=O)Nc2ccc(CC(C)(C)C)c(F)c2)cc1` [(3S)-N-((1R)-2-((4-(2,2-dimethylpropyl)-3-fluorophenyl)amino)-1-(4-(methoxymethyl)phenyl)-2-oxoethyl)-5-oxopyrrolidine-3-carboxamide] belongs 52.9%; to `COCc1ccc([C@@H](NC(=O)[C@@H]2CNC(=O)C2)C(=O)Nc2ccc(C(C)(C)C)c(F)c2)cc1` [(3S)-N-((1R)-2-((4-tert-butyl-3-fluorophenyl)amino)-1-(4-(methoxymethyl)phenyl)-2-oxoethyl)-5-oxopyrrolidine-3-carboxamide], 38.7%.

Still in this assay, the particulars now being: Homo sapiens, 24 h, 100 uM solution in 1% DMSO/OD applied topically to human skin; media collected 24 hours after Th17 activation.
Take `COCc1ccc([C@@H](NC(=O)Cc2nnc(C)o2)C(=O)Nc2cc(F)c([Si](C)(C)C)c(F)c2)cc1` [(2R)-N-(3,5-difluoro-4-(trimethylsilyl)phenyl)-2-(4-(methoxymethyl)phenyl)-2-(((5-methyl-1,3,4-oxadiazol-2-yl)acetyl)amino)acetamide]: the inhibition at 100 µM is 60.8%.
Same read-out and setting: to `COCc1ccc([C@@H](NC(=O)Cn2cnccc2=O)C(=O)Nc2cc(F)c([Si](C)(C)C)c(F)c2)cc1` [(2R)-N-(3,5-difluoro-4-(trimethylsilyl)phenyl)-2-(4-(methoxymethyl)phenyl)-2-(((6-oxopyrimidin-1(6H)-yl)acetyl)amino)acetamide] belongs 80%; to `COCc1ccc([C@@H](NC(=O)Cc2cc(O)no2)C(=O)Nc2cc(F)c([Si](C)(C)C)c(F)c2)cc1` [(2R)-N-(3,5-difluoro-4-(trimethylsilyl)phenyl)-2-(((3-hydroxy-1,2-oxazol-5-yl)acetyl)amino)-2-(4-(methoxymethyl)phenyl)acetamide], 53.9%; to `COCc1ccc([C@@H](NC(=O)Cc2nnc(C)o2)C(=O)Nc2ccc([Si](C)(C)C)c(F)c2)cc1` [(2R)-N-(3-fluoro-4-(trimethylsilyl)phenyl)-2-(4-(methoxymethyl)phenyl)-2-(((5-methyl-1,3,4-oxadiazol-2-yl)acetyl)amino)acetamide], 35.5%.
On the same count and under the same terms, to `COCc1ccc([C@@H](NC(=O)CS(C)(=O)=O)C(=O)Nc2ccc([Si](C)(C)C)c(F)c2)cc1` [(2R)-N-(3-fluoro-4-(trimethylsilyl)phenyl)-2-(4-(methoxymethyl)phenyl)-2-(((methylsulfonyl)acetyl)amino)acetamide] belongs 31.3%.
The same measure, in the same setting: to `COCc1ccc([C@@H](NC(=O)[C@H]2CNC(=O)C2)C(=O)Nc2cc(F)c([Si](C)(C)C)c(F)c2)cc1` [(3R)-N-((1R)-2-((3,5-difluoro-4-(trimethylsilyl)phenyl)amino)-1-(4-(methoxymethyl)phenyl)-2-oxoethyl)-5-oxopyrrolidine-3-carboxamide] belongs 63%; to `COc1ccc([C@@H](NC(=O)[C@H]2CNC(=O)C2)C(=O)Nc2ccc([Si](C)(C)C)c(F)c2)cc1` [(3R)-N-((1R)-2-((3-fluoro-4-(trimethylsilyl)phenyl)amino)-1-(4-(methoxy)phenyl)-2-oxoethyl)-5-oxopyrrolidine-3-carboxamide], 65.2%.
As to `COc1ccc([C@@H](NC(=O)N2CC[C@@H](O)C2)C(=O)Nc2ccc([Si](C)(C)C)c(F)c2)cc1` [(3R)-N-((1R)-2-((3-fluoro-4-(trimethylsilyl)phenyl)amino)-1-(4-methoxyphenyl)-2-oxoethyl)-3-hydroxypyrrolidine-1-carboxamide], the inhibition at 100 µM came out at 46.9%.
As to `Cn1ncc2cc(C(NC(=O)[C@@H]3CNC(=O)C3)C(=O)Nc3ccc([Si](C)(C)C)c(F)c3)ccc21` (stereo partly drawn) [(3S)-N-(2-((3-fluoro-4-(trimethylsilyl)phenyl)amino)-1-(1-methyl-1H-indazol-5-yl)-2-oxoethyl)-5-oxopyrrolidine-3-carboxamide], the inhibition at 100 µM turned out to be 58.3%.
Still for that read-out and setting: with `COCc1ccc([C@@H](NC(=O)[C@@H]2CNC(=O)C2)C(=O)Nc2cc(F)c([Si](C)(C)C)c(F)c2)cc1` [(3S)-N-((1R)-2-((3,5-difluoro-4-(trimethylsilyl)phenyl)amino)-1-(4-(methoxymethyl)phenyl)-2-oxoethyl)-5-oxopyrrolidine-3-carboxamide] the figure was 23.6%; with `COc1ccc2c(c1)OCCN(C(=O)Cc1cc(O)no1)[C@H]2C(=O)Nc1cc(F)c([Si](C)(C)C)c(F)c1` [(5R)-N-(3,5-difluoro-4-(trimethylsilyl)phenyl)-4-((3-hydroxy-1,2-oxazol-5-yl)acetyl)-8-methoxy-2,3,4,5-tetrahydro-1,4-benzoxazepine-5-carboxamide], 58.1%.
On the same count and under the same terms, to `COCc1ccc2c(n1)CCN(C(=O)Cc1cc(O)no1)[C@H]2C(=O)Nc1cc(F)c([Si](C)(C)C)c(F)c1` [(5R)-N-(3,5-difluoro-4-(trimethylsilyl)phenyl)-6-((3-hydroxy-1,2-oxazol-5-yl)acetyl)-2-(methoxymethyl)-5,6,7,8-tetrahydro-1,6-naphthyridine-5-carboxamide] belongs 60.1%.
Same read-out and setting: to `COc1ccc2c(n1)CCN(C(=O)Cc1cc(O)no1)[C@H]2C(=O)Nc1cc(F)c([Si](C)(C)C)c(F)c1` [(5R)-N-(3,5-difluoro-4-(trimethylsilyl)phenyl)-6-((3-hydroxy-1,2-oxazol-5-yl)acetyl)-2-methoxy-5,6,7,8-tetrahydro-1,6-naphthyridine-5-carboxamide] belongs 49.4%.
Consider `COCc1ccc2c(n1)CCN(C(=O)c1cc(O)no1)[C@H]2C(=O)Nc1cc(F)c([Si](C)(C)C)c(F)c1` [(5R)-N-(3,5-difluoro-4-(trimethylsilyl)phenyl)-6-((3-hydroxy-1,2-oxazol-5-yl)carbonyl)-2-(methoxymethyl)-5,6,7,8-tetrahydro-1,6-naphthyridine-5-carboxamide], for which the inhibition at 100 µM is -15.5%.
Still for that read-out and setting: to `COc1ccc2c(n1)CCN(C(=O)Cc1cc(O)no1)[C@H]2C(=O)Nc1ccc([Si](C)(C)C)c(F)c1` [(5R)-N-(3-fluoro-4-(trimethylsilyl)phenyl)-6-((3-hydroxy-1,2-oxazol-5-yl)acetyl)-2-methoxy-5,6,7,8-tetrahydro-1,6-naphthyridine-5-carboxamide] belongs 22.2%.
